Reference: ChEMBL document CHEMBL5042477, “Potent Cyclic Peptide Inhibitors of FXIIa Discovered by mRNA Display with Genetic Code Reprogramming” (J Med Chem, 2021)
Where a SMILES comes first, the peptide text is derived from it. Bridges are numbered along the chain shown (N, C = ends). [ ]: non-standard residue; d: D form. Phe(3-CF3) = N[C@@H](Cc1cccc(C(F)(F)F)c1)C(=O)O; Phe(4-CF3) = N[C@@H](Cc1ccc(C(F)(F)F)cc1)C(=O)O; Phe(2-CF3) = N[C@@H](Cc1ccccc1C(F)(F)F)C(=O)O; Phe(3-CN) = N#Cc1cccc(C[C@H](N)C(=O)O)c1; Phe(3-OMe) = COc1cccc(C[C@H](N)C(=O)O)c1; Phe(4-CN) = N#Cc1ccc(C[C@H](N)C(=O)O)cc1; Phe(2-CN) = N#Cc1ccccc1C[C@H](N)C(=O)O; Phe(2-OMe) = COc1ccccc1C[C@H](N)C(=O)O; Phe(3-F) = N[C@@H](Cc1cccc(F)c1)C(=O)O; Phe(3-Me) = Cc1cccc(C[C@H](N)C(=O)O)c1; 1Nal = N[C@@H](Cc1cccc2ccccc12)C(=O)O; 2Nal = N[C@@H](Cc1ccc2ccccc2c1)C(=O)O; Phe(2-F) = N[C@@H](Cc1ccccc1F)C(=O)O; Phe(2-Me) = Cc1ccccc1C[C@H](N)C(=O)O; 2Pal = N[C@@H](Cc1ccccn1)C(=O)O; 3Pal = N[C@@H](Cc1cccnc1)C(=O)O; 4Pal = N[C@@H](Cc1ccncc1)C(=O)O; Cha = N[C@@H](CC1CCCCC1)C(=O)O

Biological target: T1, Coagulation factor XII (Homo sapiens, UniProt P00748)
T1 sequence (P00748 whole entry): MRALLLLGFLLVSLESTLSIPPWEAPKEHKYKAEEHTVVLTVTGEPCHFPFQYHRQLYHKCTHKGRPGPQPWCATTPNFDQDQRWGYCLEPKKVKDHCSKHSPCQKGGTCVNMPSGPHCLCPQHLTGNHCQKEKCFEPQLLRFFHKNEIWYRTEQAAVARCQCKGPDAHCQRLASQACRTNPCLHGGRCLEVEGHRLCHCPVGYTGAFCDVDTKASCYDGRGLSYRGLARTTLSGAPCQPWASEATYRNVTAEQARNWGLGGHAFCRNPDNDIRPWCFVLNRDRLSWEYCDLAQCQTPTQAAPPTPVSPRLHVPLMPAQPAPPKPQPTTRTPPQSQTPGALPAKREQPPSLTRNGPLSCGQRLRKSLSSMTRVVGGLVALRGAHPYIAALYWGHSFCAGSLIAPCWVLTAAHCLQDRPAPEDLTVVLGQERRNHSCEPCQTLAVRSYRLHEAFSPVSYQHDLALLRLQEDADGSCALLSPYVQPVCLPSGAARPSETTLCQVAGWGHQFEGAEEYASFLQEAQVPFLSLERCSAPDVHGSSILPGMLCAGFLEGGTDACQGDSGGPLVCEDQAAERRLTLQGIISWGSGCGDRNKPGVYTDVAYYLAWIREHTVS
Assay: Inhibition of human factor 12a using H-D-Pro-Phe-Arg-p-nitroanilide as chromogenic substrate assessed as liberation of p-nitroaniline measured every 5 mins for 60 min by multimode plate reader analysis

| IC50 [nM] | SMILES |
| --- | --- |
| 560 | COc1ccc(C[C@@H]2NC(=O)[C@H](CCCNC(=N)N)NC(=O)[C@H](CC(C)C)NC(=O)[C@H](Cc3ccc(O)cc3)NC(=O)CSC[C@@H](C(N)=O)NC(=O)CNC(=O)CNC(=O)[C@H](CCCNC(=N)N)NC(=O)[C@H](CC(=O)O)NC(=O)[C@H](CCCCN)NC(=O)[C@@H]3CCCN3C(=O)[C@H](CCCNC(=N)N)NC2=O)cc1 ({CH2CO}-YLRY(Me)RPKDRGGC-NH2; thioether N-12) |
| 260 | CC(C)C[C@@H]1NC(=O)[C@H](Cc2ccc(O)cc2)NC(=O)CSC[C@@H](C(N)=O)NC(=O)CNC(=O)CNC(=O)[C@H](CCCNC(=N)N)NC(=O)[C@H](CC(=O)O)NC(=O)[C@H](CCCCN)NC(=O)[C@@H]2CCCN2C(=O)[C@H](CCCNC(=N)N)NC(=O)[C@H](Cc2ccc(O)cc2)NC(=O)[C@H](CCCNC(=N)N)NC1=O ({CH2CO}-YLRYRPKDRGGC-NH2; thioether N-12) |
| 68 | CC(C)C[C@@H]1NC(=O)[C@H](Cc2ccc(O)cc2)NC(=O)CSC[C@@H](C(N)=O)NC(=O)CNC(=O)CNC(=O)[C@H](CCCNC(=N)N)NC(=O)[C@H](CC(=O)O)NC(=O)[C@H](CCCCN)NC(=O)[C@@H]2CCCN2C(=O)[C@H](CCCNC(=N)N)NC(=O)[C@H](Cc2cccc3ccccc23)NC(=O)[C@H](CCCNC(=N)N)NC1=O ({CH2CO}-YLR[1Nal]RPKDRGGC-NH2; thioether N-12) |
| 50 | CC(C)C[C@@H]1NC(=O)[C@H](Cc2ccc(O)cc2)NC(=O)CSC[C@@H](C(N)=O)NC(=O)CNC(=O)CNC(=O)[C@H](CCCNC(=N)N)NC(=O)[C@H](CC(=O)O)NC(=O)[C@H](CCCCN)NC(=O)[C@@H]2CCCN2C(=O)[C@H](CCCNC(=N)N)NC(=O)[C@H](Cc2ccc3ccccc3c2)NC(=O)[C@H](CCCNC(=N)N)NC1=O ({CH2CO}-YLR[2Nal]RPKDRGGC-NH2; thioether N-12) |
| 96 | CC(C)C[C@@H]1NC(=O)[C@H](Cc2ccc(O)cc2)NC(=O)CSC[C@@H](C(N)=O)NC(=O)CNC(=O)CNC(=O)[C@H](CCCNC(=N)N)NC(=O)[C@H](CC(=O)O)NC(=O)[C@H](CCCCN)NC(=O)[C@@H]2CCCN2C(=O)[C@H](CCCNC(=N)N)NC(=O)[C@H](Cc2ccccn2)NC(=O)[C@H](CCCNC(=N)N)NC1=O ({CH2CO}-YLR[2Pal]RPKDRGGC-NH2; thioether N-12) |
| 170 | CC(C)C[C@@H]1NC(=O)[C@H](Cc2ccc(O)cc2)NC(=O)CSC[C@@H](C(N)=O)NC(=O)CNC(=O)CNC(=O)[C@H](CCCNC(=N)N)NC(=O)[C@H](CC(=O)O)NC(=O)[C@H](CCCCN)NC(=O)[C@@H]2CCCN2C(=O)[C@H](CCCNC(=N)N)NC(=O)[C@H](Cc2cccnc2)NC(=O)[C@H](CCCNC(=N)N)NC1=O ({CH2CO}-YLR[3Pal]RPKDRGGC-NH2; thioether N-12) |
| 120 | CC(C)C[C@@H]1NC(=O)[C@H](Cc2ccc(O)cc2)NC(=O)CSC[C@@H](C(N)=O)NC(=O)CNC(=O)CNC(=O)[C@H](CCCNC(=N)N)NC(=O)[C@H](CC(=O)O)NC(=O)[C@H](CCCCN)NC(=O)[C@@H]2CCCN2C(=O)[C@H](CCCNC(=N)N)NC(=O)[C@H](Cc2ccncc2)NC(=O)[C@H](CCCNC(=N)N)NC1=O ({CH2CO}-YLR[4Pal]RPKDRGGC-NH2; thioether N-12) |
| 53 | CC(C)C[C@@H]1NC(=O)[C@H](Cc2ccc(O)cc2)NC(=O)CSC[C@@H](C(N)=O)NC(=O)CNC(=O)CNC(=O)[C@H](CCCNC(=N)N)NC(=O)[C@H](CC(=O)O)NC(=O)[C@H](CCCCN)NC(=O)[C@@H]2CCCN2C(=O)[C@H](CCCNC(=N)N)NC(=O)[C@H](CC2CCCCC2)NC(=O)[C@H](CCCNC(=N)N)NC1=O ({CH2CO}-YLR[Cha]RPKDRGGC-NH2; thioether N-12) |
| 42 | CC(C)C[C@@H]1NC(=O)[C@H](Cc2ccc(O)cc2)NC(=O)CSC[C@@H](C(N)=O)NC(=O)CNC(=O)CNC(=O)[C@H](CCCNC(=N)N)NC(=O)[C@H](CC(=O)O)NC(=O)[C@H](CCCCN)NC(=O)[C@@H]2CCCN2C(=O)[C@H](CCCNC(=N)N)NC(=O)[C@H](Cc2ccccc2C(F)(F)F)NC(=O)[C@H](CCCNC(=N)N)NC1=O ({CH2CO}-YLR[Phe(2-CF3)]RPKDRGGC-NH2; thioether N-12) |
| 120 | CC(C)C[C@@H]1NC(=O)[C@H](Cc2ccc(O)cc2)NC(=O)CSC[C@@H](C(N)=O)NC(=O)CNC(=O)CNC(=O)[C@H](CCCNC(=N)N)NC(=O)[C@H](CC(=O)O)NC(=O)[C@H](CCCCN)NC(=O)[C@@H]2CCCN2C(=O)[C@H](CCCNC(=N)N)NC(=O)[C@H](Cc2ccccc2C#N)NC(=O)[C@H](CCCNC(=N)N)NC1=O ({CH2CO}-YLR[Phe(2-CN)]RPKDRGGC-NH2; thioether N-12) |
| 53 | CC(C)C[C@@H]1NC(=O)[C@H](Cc2ccc(O)cc2)NC(=O)CSC[C@@H](C(N)=O)NC(=O)CNC(=O)CNC(=O)[C@H](CCCNC(=N)N)NC(=O)[C@H](CC(=O)O)NC(=O)[C@H](CCCCN)NC(=O)[C@@H]2CCCN2C(=O)[C@H](CCCNC(=N)N)NC(=O)[C@H](Cc2ccccc2F)NC(=O)[C@H](CCCNC(=N)N)NC1=O ({CH2CO}-YLR[Phe(2-F)]RPKDRGGC-NH2; thioether N-12) |
| 43 | Cc1ccccc1C[C@@H]1NC(=O)[C@H](CCCNC(=N)N)NC(=O)[C@H](CC(C)C)NC(=O)[C@H](Cc2ccc(O)cc2)NC(=O)CSC[C@@H](C(N)=O)NC(=O)CNC(=O)CNC(=O)[C@H](CCCNC(=N)N)NC(=O)[C@H](CC(=O)O)NC(=O)[C@H](CCCCN)NC(=O)[C@@H]2CCCN2C(=O)[C@H](CCCNC(=N)N)NC1=O ({CH2CO}-YLR[Phe(2-Me)]RPKDRGGC-NH2; thioether N-12) |
| 60 | COc1ccccc1C[C@@H]1NC(=O)[C@H](CCCNC(=N)N)NC(=O)[C@H](CC(C)C)NC(=O)[C@H](Cc2ccc(O)cc2)NC(=O)CSC[C@@H](C(N)=O)NC(=O)CNC(=O)CNC(=O)[C@H](CCCNC(=N)N)NC(=O)[C@H](CC(=O)O)NC(=O)[C@H](CCCCN)NC(=O)[C@@H]2CCCN2C(=O)[C@H](CCCNC(=N)N)NC1=O ({CH2CO}-YLR[Phe(2-OMe)]RPKDRGGC-NH2; thioether N-12) |
| 93 | CC(C)C[C@@H]1NC(=O)[C@H](Cc2ccc(O)cc2)NC(=O)CSC[C@@H](C(N)=O)NC(=O)CNC(=O)CNC(=O)[C@H](CCCNC(=N)N)NC(=O)[C@H](CC(=O)O)NC(=O)[C@H](CCCCN)NC(=O)[C@@H]2CCCN2C(=O)[C@H](CCCNC(=N)N)NC(=O)[C@H](Cc2cccc(C(F)(F)F)c2)NC(=O)[C@H](CCCNC(=N)N)NC1=O ({CH2CO}-YLR[Phe(3-CF3)]RPKDRGGC-NH2; thioether N-12) |
| 160 | CC(C)C[C@@H]1NC(=O)[C@H](Cc2ccc(O)cc2)NC(=O)CSC[C@@H](C(N)=O)NC(=O)CNC(=O)CNC(=O)[C@H](CCCNC(=N)N)NC(=O)[C@H](CC(=O)O)NC(=O)[C@H](CCCCN)NC(=O)[C@@H]2CCCN2C(=O)[C@H](CCCNC(=N)N)NC(=O)[C@H](Cc2cccc(C#N)c2)NC(=O)[C@H](CCCNC(=N)N)NC1=O ({CH2CO}-YLR[Phe(3-CN)]RPKDRGGC-NH2; thioether N-12) |
| 66 | CC(C)C[C@@H]1NC(=O)[C@H](Cc2ccc(O)cc2)NC(=O)CSC[C@@H](C(N)=O)NC(=O)CNC(=O)CNC(=O)[C@H](CCCNC(=N)N)NC(=O)[C@H](CC(=O)O)NC(=O)[C@H](CCCCN)NC(=O)[C@@H]2CCCN2C(=O)[C@H](CCCNC(=N)N)NC(=O)[C@H](Cc2cccc(F)c2)NC(=O)[C@H](CCCNC(=N)N)NC1=O ({CH2CO}-YLR[Phe(3-F)]RPKDRGGC-NH2; thioether N-12) |
| 73 | Cc1cccc(C[C@@H]2NC(=O)[C@H](CCCNC(=N)N)NC(=O)[C@H](CC(C)C)NC(=O)[C@H](Cc3ccc(O)cc3)NC(=O)CSC[C@@H](C(N)=O)NC(=O)CNC(=O)CNC(=O)[C@H](CCCNC(=N)N)NC(=O)[C@H](CC(=O)O)NC(=O)[C@H](CCCCN)NC(=O)[C@@H]3CCCN3C(=O)[C@H](CCCNC(=N)N)NC2=O)c1 ({CH2CO}-YLR[Phe(3-Me)]RPKDRGGC-NH2; thioether N-12) |
| 120 | COc1cccc(C[C@@H]2NC(=O)[C@H](CCCNC(=N)N)NC(=O)[C@H](CC(C)C)NC(=O)[C@H](Cc3ccc(O)cc3)NC(=O)CSC[C@@H](C(N)=O)NC(=O)CNC(=O)CNC(=O)[C@H](CCCNC(=N)N)NC(=O)[C@H](CC(=O)O)NC(=O)[C@H](CCCCN)NC(=O)[C@@H]3CCCN3C(=O)[C@H](CCCNC(=N)N)NC2=O)c1 ({CH2CO}-YLR[Phe(3-OMe)]RPKDRGGC-NH2; thioether N-12) |
| 110 | CC(C)C[C@@H]1NC(=O)[C@H](Cc2ccc(O)cc2)NC(=O)CSC[C@@H](C(N)=O)NC(=O)CNC(=O)CNC(=O)[C@H](CCCNC(=N)N)NC(=O)[C@H](CC(=O)O)NC(=O)[C@H](CCCCN)NC(=O)[C@@H]2CCCN2C(=O)[C@H](CCCNC(=N)N)NC(=O)[C@H](Cc2ccc(C(F)(F)F)cc2)NC(=O)[C@H](CCCNC(=N)N)NC1=O ({CH2CO}-YLR[Phe(4-CF3)]RPKDRGGC-NH2; thioether N-12) |
| 90 | CC(C)C[C@@H]1NC(=O)[C@H](Cc2ccc(O)cc2)NC(=O)CSC[C@@H](C(N)=O)NC(=O)CNC(=O)CNC(=O)[C@H](CCCNC(=N)N)NC(=O)[C@H](CC(=O)O)NC(=O)[C@H](CCCCN)NC(=O)[C@@H]2CCCN2C(=O)[C@H](CCCNC(=N)N)NC(=O)[C@H](Cc2ccc(C#N)cc2)NC(=O)[C@H](CCCNC(=N)N)NC1=O ({CH2CO}-YLR[Phe(4-CN)]RPKDRGGC-NH2; thioether N-12) |
